# Test results published in patent publication US9936701B2, “Herbicidal compounds” (Syngenta Participations AG, priority 2013, dated 2018).
# Experiments:
# [1] = test system: a variety of test species; assay: Pre-emergence herbicidal activity (glasshouse, sprayed one day after sowing, evaluated after 13 days); format: in vivo; parameters: key: 5=total damage to plant; 0=no damage to plant; conditions: application pre-emergence, rate 1000 g/Ha, scale 0-5
# Summary of the method: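 Damage rated 13 days post-treatment on a 0-5 scale, 5 meaning total plant damage. Pots were sprayed pre-emergence, one day after sowing, with an acetone/water-derived aqueous spray containing 0.5% Tween 20. Plants grew under 14 h light, 65% humidity, 24/16 °C, watered twice daily.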
# [2] = test system: a variety of test species; assay: Post-emergence herbicidal activity (glasshouse, sprayed after 8 days cultivation, evaluated after 13 days); format: in vivo; parameters: key: 5=total damage to plant; 0=no damage to plant; conditions: rate 1000 g/Ha, scale 0-5
# Summary of the method: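 Damage was rated 0-5 (5 = total) 13 days after a post-emergence spray of acetone/water (50:50) plus 0.5% Tween 20 formulation. Plants were sprayed at 8 days' growth and kept at 24/16° C, 14 h light, 65% humidity, watered twice daily.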
structure (smiles),measurement,setting,value
CCCC1=C(Br)C(=O)N(c2noc(C(C)(C)C)c2C#N)C1O (centres unmarked) [A51],"Pre-emergence herbicidal damage score, ABUTH",[1],4
same,"Pre-emergence herbicidal damage score, ALOMY",[1],3
same,"Pre-emergence herbicidal damage score, AMARE",[1],5
same,"Pre-emergence herbicidal damage score, ECHCG",[1],4
same,"Pre-emergence herbicidal damage score, SETFA",[1],4
same,"Pre-emergence herbicidal damage score, ZEAMX",[1],3
same,"ABUTH (Abutilon theophrasti) damage score, application post-emergence",[2],5
same,"ALOMY (Alopecurus myosuroides) damage score, application post-emergence",[2],4
same,"AMARE (Amaranthus retroflexus) damage score, application post-emergence",[2],5
same,"ECHCG (Echinochloa crus-galli) damage score, application post-emergence",[2],5
same,"SETFA (Setaria faberi) damage score, application post-emergence",[2],5
same,"ZEAMX (Zea mays) damage score, application post-emergence",[2],3
same,melting point,,123 to 124 °C
CCCC1=C(Br)C(=O)N(c2cc(C(C)(C)C#N)on2)C1O (centres unmarked) [A52],"Pre-emergence herbicidal damage score, ABUTH",[1],5
same,"Pre-emergence herbicidal damage score, ALOMY",[1],4
same,"Pre-emergence herbicidal damage score, AMARE",[1],5
same,"Pre-emergence herbicidal damage score, ECHCG",[1],5
same,"Pre-emergence herbicidal damage score, SETFA",[1],5
same,"Pre-emergence herbicidal damage score, ZEAMX",[1],4
same,"ABUTH (Abutilon theophrasti) damage score, application post-emergence",[2],5
same,"ALOMY (Alopecurus myosuroides) damage score, application post-emergence",[2],5
same,"AMARE (Amaranthus retroflexus) damage score, application post-emergence",[2],5
same,"ECHCG (Echinochloa crus-galli) damage score, application post-emergence",[2],5
same,"SETFA (Setaria faberi) damage score, application post-emergence",[2],5
same,"ZEAMX (Zea mays) damage score, application post-emergence",[2],5
same,melting point,,80 to 82 °C
CC1=C(Br)C(=O)N(c2cc(C(C)(C)C#N)on2)C1O (centres unmarked) [A53],"Pre-emergence herbicidal damage score, ABUTH",[1],5
same,"Pre-emergence herbicidal damage score, ALOMY",[1],4
same,"Pre-emergence herbicidal damage score, AMARE",[1],5
same,"Pre-emergence herbicidal damage score, ECHCG",[1],5
same,"Pre-emergence herbicidal damage score, SETFA",[1],5
same,"Pre-emergence herbicidal damage score, ZEAMX",[1],4
same,"ABUTH (Abutilon theophrasti) damage score, application post-emergence",[2],5
same,"ALOMY (Alopecurus myosuroides) damage score, application post-emergence",[2],5
same,"AMARE (Amaranthus retroflexus) damage score, application post-emergence",[2],5
same,"ECHCG (Echinochloa crus-galli) damage score, application post-emergence",[2],5
same,"SETFA (Setaria faberi) damage score, application post-emergence",[2],5
same,"ZEAMX (Zea mays) damage score, application post-emergence",[2],5
same,melting point,,138 to 140 °C
CCCC1=C(Cl)C(=O)N(c2noc(C(C)(C)C)c2C#N)C1O (centres unmarked) [A54],"Pre-emergence herbicidal damage score, ABUTH",[1],5
same,"Pre-emergence herbicidal damage score, ALOMY",[1],4
same,"Pre-emergence herbicidal damage score, AMARE",[1],5
same,"Pre-emergence herbicidal damage score, ECHCG",[1],5
same,"Pre-emergence herbicidal damage score, SETFA",[1],5
same,"Pre-emergence herbicidal damage score, ZEAMX",[1],4
same,"ABUTH (Abutilon theophrasti) damage score, application post-emergence",[2],5
same,"ALOMY (Alopecurus myosuroides) damage score, application post-emergence",[2],5
same,"AMARE (Amaranthus retroflexus) damage score, application post-emergence",[2],5
same,"ECHCG (Echinochloa crus-galli) damage score, application post-emergence",[2],5
same,"SETFA (Setaria faberi) damage score, application post-emergence",[2],5
same,"ZEAMX (Zea mays) damage score, application post-emergence",[2],5
same,melting point,,133 to 135 °C
CCC1=C(Br)C(=O)N(c2noc(C(C)(C)C)c2C#N)C1O (centres unmarked) [A55],"Pre-emergence herbicidal damage score, ABUTH",[1],5
same,"Pre-emergence herbicidal damage score, ALOMY",[1],4
same,"Pre-emergence herbicidal damage score, AMARE",[1],5
same,"Pre-emergence herbicidal damage score, ECHCG",[1],5
same,"Pre-emergence herbicidal damage score, SETFA",[1],5
same,"Pre-emergence herbicidal damage score, ZEAMX",[1],3
same,"ABUTH (Abutilon theophrasti) damage score, application post-emergence",[2],5
same,"ALOMY (Alopecurus myosuroides) damage score, application post-emergence",[2],5
same,"AMARE (Amaranthus retroflexus) damage score, application post-emergence",[2],5
same,"ECHCG (Echinochloa crus-galli) damage score, application post-emergence",[2],5
same,"SETFA (Setaria faberi) damage score, application post-emergence",[2],5
same,"ZEAMX (Zea mays) damage score, application post-emergence",[2],4
same,melting point,,138 to 140 °C
CCC1=C(Cl)C(=O)N(c2noc(C(C)(C)C)c2C#N)C1O (centres unmarked) [A58],"Pre-emergence herbicidal damage score, ABUTH",[1],5
same,"Pre-emergence herbicidal damage score, ALOMY",[1],4
same,"Pre-emergence herbicidal damage score, AMARE",[1],5
same,"Pre-emergence herbicidal damage score, ECHCG",[1],5
same,"Pre-emergence herbicidal damage score, SETFA",[1],5
same,"Pre-emergence herbicidal damage score, ZEAMX",[1],4
same,"ABUTH (Abutilon theophrasti) damage score, application post-emergence",[2],5
same,"ALOMY (Alopecurus myosuroides) damage score, application post-emergence",[2],5
same,"AMARE (Amaranthus retroflexus) damage score, application post-emergence",[2],5
same,"ECHCG (Echinochloa crus-galli) damage score, application post-emergence",[2],5
same,"SETFA (Setaria faberi) damage score, application post-emergence",[2],5
same,"ZEAMX (Zea mays) damage score, application post-emergence",[2],5
same,melting point,,134 to 136 °C
CCC1=C(Cl)C(=O)N(c2noc(C(C)(C)CC)c2C#N)C1O (centres unmarked) [A60],"Pre-emergence herbicidal damage score, ABUTH",[1],5
same,"Pre-emergence herbicidal damage score, ALOMY",[1],3
same,"Pre-emergence herbicidal damage score, AMARE",[1],5
same,"Pre-emergence herbicidal damage score, ECHCG",[1],4
same,"Pre-emergence herbicidal damage score, SETFA",[1],5
same,"Pre-emergence herbicidal damage score, ZEAMX",[1],3
same,"ABUTH (Abutilon theophrasti) damage score, application post-emergence",[2],5
same,"ALOMY (Alopecurus myosuroides) damage score, application post-emergence",[2],4
same,"AMARE (Amaranthus retroflexus) damage score, application post-emergence",[2],5
same,"ECHCG (Echinochloa crus-galli) damage score, application post-emergence",[2],5
same,"SETFA (Setaria faberi) damage score, application post-emergence",[2],5
same,"ZEAMX (Zea mays) damage score, application post-emergence",[2],2
same,melting point,,110 to 112 °C
CC1=C(Br)C(=O)N(c2noc(C(C)C)c2C#N)C1O (centres unmarked) [A61],"Pre-emergence herbicidal damage score, ABUTH",[1],5
same,"Pre-emergence herbicidal damage score, ALOMY",[1],4
same,"Pre-emergence herbicidal damage score, AMARE",[1],5
same,"Pre-emergence herbicidal damage score, ECHCG",[1],5
same,"Pre-emergence herbicidal damage score, SETFA",[1],5
same,"Pre-emergence herbicidal damage score, ZEAMX",[1],3
same,"ABUTH (Abutilon theophrasti) damage score, application post-emergence",[2],5
same,"ALOMY (Alopecurus myosuroides) damage score, application post-emergence",[2],5
same,"AMARE (Amaranthus retroflexus) damage score, application post-emergence",[2],5
same,"ECHCG (Echinochloa crus-galli) damage score, application post-emergence",[2],5
same,"SETFA (Setaria faberi) damage score, application post-emergence",[2],5
same,"ZEAMX (Zea mays) damage score, application post-emergence",[2],3
same,melting point,,127 to 129 °C
CCC1=C(Br)C(=O)N(c2noc(C(C)C)c2C#N)C1O (centres unmarked) [A62],"Pre-emergence herbicidal damage score, ABUTH",[1],5
same,"Pre-emergence herbicidal damage score, ALOMY",[1],3
same,"Pre-emergence herbicidal damage score, AMARE",[1],5
same,"Pre-emergence herbicidal damage score, ECHCG",[1],4
same,"Pre-emergence herbicidal damage score, SETFA",[1],5
same,"Pre-emergence herbicidal damage score, ZEAMX",[1],3
same,"ABUTH (Abutilon theophrasti) damage score, application post-emergence",[2],5
same,"ALOMY (Alopecurus myosuroides) damage score, application post-emergence",[2],4
same,"AMARE (Amaranthus retroflexus) damage score, application post-emergence",[2],5
same,"ECHCG (Echinochloa crus-galli) damage score, application post-emergence",[2],5
same,"SETFA (Setaria faberi) damage score, application post-emergence",[2],5
same,"ZEAMX (Zea mays) damage score, application post-emergence",[2],3
same,melting point,,106 to 108 °C
CCC1=C(Cl)C(=O)N(c2noc(C(C)C)c2C#N)C1O (centres unmarked) [A63],"Pre-emergence herbicidal damage score, ABUTH",[1],5
same,"Pre-emergence herbicidal damage score, ALOMY",[1],3
same,"Pre-emergence herbicidal damage score, AMARE",[1],5
same,"Pre-emergence herbicidal damage score, ECHCG",[1],5
same,"Pre-emergence herbicidal damage score, SETFA",[1],5
same,"Pre-emergence herbicidal damage score, ZEAMX",[1],3
same,"ABUTH (Abutilon theophrasti) damage score, application post-emergence",[2],5
same,"ALOMY (Alopecurus myosuroides) damage score, application post-emergence",[2],4
same,"AMARE (Amaranthus retroflexus) damage score, application post-emergence",[2],5
same,"ECHCG (Echinochloa crus-galli) damage score, application post-emergence",[2],5
same,"SETFA (Setaria faberi) damage score, application post-emergence",[2],5
same,"ZEAMX (Zea mays) damage score, application post-emergence",[2],3
same,melting point,,93 to 95 °C
CCC1=C(Cl)C(=O)N(c2cc(C(C)(C)C#N)on2)C1O (centres unmarked) [A64],"Pre-emergence herbicidal damage score, ABUTH",[1],4
same,"Pre-emergence herbicidal damage score, ALOMY",[1],3
same,"Pre-emergence herbicidal damage score, AMARE",[1],5
same,"Pre-emergence herbicidal damage score, ECHCG",[1],5
same,"Pre-emergence herbicidal damage score, SETFA",[1],5
same,"Pre-emergence herbicidal damage score, ZEAMX",[1],1
same,"ABUTH (Abutilon theophrasti) damage score, application post-emergence",[2],5
same,"ALOMY (Alopecurus myosuroides) damage score, application post-emergence",[2],5
same,"AMARE (Amaranthus retroflexus) damage score, application post-emergence",[2],5
same,"ECHCG (Echinochloa crus-galli) damage score, application post-emergence",[2],5
same,"SETFA (Setaria faberi) damage score, application post-emergence",[2],5
same,"ZEAMX (Zea mays) damage score, application post-emergence",[2],4
same,melting point,,101 to 102 °C
